Here are results for four compounds from PubChem BioAssay AID1259407 (Chemical Carcinogenesis Research Information System (CCRIS), 2018).

The subject of the data set is CCRIS mutagenicity, Ames/micronucleus/aberration tests. Kind of data set: CCRIS mutagenicity studies.
[1] abbreviates: Test System: AMES SALMONELLA TYPHIMURIUM, Strain/Indicator: TA98, Metabolic Activation: NONE, Method: STANDARD PLATE.
[2] abbreviates: Test System: AMES SALMONELLA TYPHIMURIUM, Strain/Indicator: TA100, Metabolic Activation: NONE, Method: STANDARD PLATE.
Where [3] appears, read: Test System: AMES SALMONELLA TYPHIMURIUM, Strain/Indicator: TA1535, Metabolic Activation: HAMSTER, LIVER, S-9, AROCLOR 1254, Method: STANDARD PLATE.
[4] abbreviates: Test System: AMES SALMONELLA TYPHIMURIUM, Strain/Indicator: TA1535, Metabolic Activation: NONE, Method: STANDARD PLATE.
[5] abbreviates: Test System: AMES SALMONELLA TYPHIMURIUM, Strain/Indicator: TA1535, Metabolic Activation: RAT, LIVER, S-9, AROCLOR 1254, Method: STANDARD PLATE.
Where [6] appears, read: Test System: AMES SALMONELLA TYPHIMURIUM, Strain/Indicator: TA1537, Metabolic Activation: HAMSTER, LIVER, S-9, AROCLOR 1254, Method: STANDARD PLATE.
Setting [7] is: Test System: AMES SALMONELLA TYPHIMURIUM, Strain/Indicator: TA1537, Metabolic Activation: NONE, Method: STANDARD PLATE.
The mark [8] stands for this setting: Test System: AMES SALMONELLA TYPHIMURIUM, Strain/Indicator: TA1538, Metabolic Activation: NONE, Method: STANDARD PLATE.
Setting [9] is: Test System: AMES SALMONELLA TYPHIMURIUM, Strain/Indicator: TA1538, Metabolic Activation: RAT, LIVER, S-9, AROCLOR 1254, Method: STANDARD PLATE.

Activity calls are given as the source filed them. No rule for the calls is given here.

Consider `O=c1[nH]cnc2c1ncn2[C@H]1CC[C@@H](CO)O1`, for which the mutagenic call runs as follows: (Test System: AMES SALMONELLA TYPHIMURIUM, Strain/Indicator: TA98, Metabolic Activation: HAMSTER, LIVER, S-9, AROCLOR 1254, Method: STANDARD PLATE) “inactive; negative”; under setting [1], “inactive; negative”; (Test System: AMES SALMONELLA TYPHIMURIUM, Strain/Indicator: TA98, Metabolic Activation: RAT, LIVER, S-9, AROCLOR 1254, Method: STANDARD PLATE) “inactive; negative”; (Test System: AMES SALMONELLA TYPHIMURIUM, Strain/Indicator: TA100, Metabolic Activation: HAMSTER, LIVER, S-9, AROCLOR 1254, Method: STANDARD PLATE) “inactive; negative”; under setting [2], “inactive; negative”; (Test System: AMES SALMONELLA TYPHIMURIUM, Strain/Indicator: TA100, Metabolic Activation: RAT, LIVER, S-9, AROCLOR 1254, Method: STANDARD PLATE) “inactive; negative”. Also, the mutagenic call is, setting by setting: under setting [3], “inactive; negative”; under setting [4], “inactive; negative”; under setting [5], “inactive; negative”; under setting [6], “inactive; negative”; under setting [7], “inactive; negative”; (Test System: AMES SALMONELLA TYPHIMURIUM, Strain/Indicator: TA1537, Metabolic Activation: RAT, LIVER, S-9, AROCLOR 1254, Method: STANDARD PLATE) “inactive; negative”. For the same compound, the mutagenic call is, setting by setting: (Test System: AMES SALMONELLA TYPHIMURIUM, Strain/Indicator: TA1538, Metabolic Activation: HAMSTER, LIVER, S-9, AROCLOR 1254, Method: STANDARD PLATE) “inactive; negative”; under setting [8], “inactive; negative”; under setting [9], “inactive; negative”; (Test System: HUMAN B LYMPHOBLASTOID CELLS, Strain/Indicator: TK6 CELL (HPRT)/6-THIOGUANINE, Metabolic Activation: NONE, Method: SUSPENSION/PLATE) “active; positive”; (Test System: HUMAN B LYMPHOBLASTOID CELLS, Strain/Indicator: TK6 CELL (TK+/-)/TRIFLUOROTHYMIDINE, Metabolic Activation: NONE, Method: SUSPENSION/PLATE) “active; positive”.
On to `Nc1ccc(N=Nc2ccc(-c3ccc(N=Nc4c(S(=O)(=O)O)cc5c(c4N)C(=O)/C(=N/Nc4ccccc4)C(S(=O)(=O)O)=C5)cc3)cc2)c(N)c1`, for which the mutagenic call runs as follows: (Test System: AMES SALMONELLA TYPHIMURIUM, Strain/Indicator: SV50, Metabolic Activation: HAMSTER, LIVER, S-9, Method: PREINCUBATION (PRIVAL METHOD)) “active; positive”; (Test System: AMES SALMONELLA TYPHIMURIUM, Strain/Indicator: SV50, Metabolic Activation: RAT, LIVER, S-9, AROCLOR 1254, Method: PREINCUBATION (PRIVAL METHOD)) “active; positive”; (Test System: AMES SALMONELLA TYPHIMURIUM, Strain/Indicator: TA98, Metabolic Activation: HAMSTER, LIVER, S-9, Method: PREINCUBATION (PRIVAL METHOD)) “active; positive”; under setting [1], “inactive; negative”; (Test System: AMES SALMONELLA TYPHIMURIUM, Strain/Indicator: TA98, Metabolic Activation: RAT, LIVER, S-9, AROCLOR 1254, Method: PREINCUBATION (PRIVAL METHOD)) “active; positive”; (Test System: AMES SALMONELLA TYPHIMURIUM, Strain/Indicator: TA98, Metabolic Activation: RAT, LIVER, S-9, PHENOBARBITAL, Method: STANDARD PLATE) “inactive; negative”. In addition, the mutagenic call is “inactive; negative” under setting [2]; “inactive; negative” (Test System: AMES SALMONELLA TYPHIMURIUM, Strain/Indicator: TA100, Metabolic Activation: RAT, LIVER, S-9, PHENOBARBITAL, Method: STANDARD PLATE); “inactive; negative” under setting [8]; “active; positive” under setting [9]; “active; positive, test conducted under both aerobic and anaerobic conditions” (Test System: Ames Salmonella typhimurium, Strain/Indicator: TA98, Metabolic Activation: Rat, Liver, S-9, Sodium phenobarbitone, Method: Preincubation); “active; positive, test conducted under both aerobic and anaerobic conditions” (Test System: Ames Salmonella typhimurium, Strain/Indicator: TA1538, Metabolic Activation: Rat, Liver, S-9, Sodium phenobarbitone, Method: Preincubation).
Turning to `Cc1c(C)c2c(N)c3ccccc3nc2c2ccccc12`, the mutagenic call by setting is: (Test System: AMES SALMONELLA TYPHIMURIUM, Strain/Indicator: TA97, Metabolic Activation: NONE, Method: PREINCUBATION) “active; positive”; (Test System: AMES SALMONELLA TYPHIMURIUM, Strain/Indicator: TA97, Metabolic Activation: NONE, Method: STANDARD PLATE) “active; positive”; (Test System: AMES SALMONELLA TYPHIMURIUM, Strain/Indicator: TA98, Metabolic Activation: NONE, Method: PREINCUBATION) “active; positive”; (Test System: AMES SALMONELLA TYPHIMURIUM, Strain/Indicator: TA1537, Metabolic Activation: NONE, Method: PREINCUBATION) “inactive; negative”; under setting [7], “active; positive”.
For `Nc1cccc2c(N)cccc12`, the mutagenic call is “inactive; negative” under setting [1]; “inactive; negative” (Test System: AMES SALMONELLA TYPHIMURIUM, Strain/Indicator: TA98, Metabolic Activation: RAT, LIVER, S-9, Method: STANDARD PLATE); “inactive; negative” under setting [3]; “inactive; negative” (Test System: AMES SALMONELLA TYPHIMURIUM, Strain/Indicator: TA1535, Metabolic Activation: HAMSTER, LIVER, S-9, Method: STANDARD PLATE); “inactive; negative” (Test System: AMES SALMONELLA TYPHIMURIUM, Strain/Indicator: TA1535, Metabolic Activation: MOUSE, LIVER, S-9, AROCLOR 1254, Method: STANDARD PLATE); “inactive; negative” (Test System: AMES SALMONELLA TYPHIMURIUM, Strain/Indicator: TA1535, Metabolic Activation: MOUSE, LIVER, S-9, Method: STANDARD PLATE). Also, the mutagenic call under setting [4] is “inactive; negative”; the mutagenic call under setting [5] was “inactive; negative”; the mutagenic call (Test System: AMES SALMONELLA TYPHIMURIUM, Strain/Indicator: TA1535, Metabolic Activation: RAT, LIVER, S-9, Method: STANDARD PLATE) is “inactive; negative”; the mutagenic call under setting [6] is “active; positive”; the mutagenic call (Test System: AMES SALMONELLA TYPHIMURIUM, Strain/Indicator: TA1537, Metabolic Activation: MOUSE, LIVER, S-9, Method: STANDARD PLATE) is “inactive; negative”; the mutagenic call (Test System: AMES SALMONELLA TYPHIMURIUM, Strain/Indicator: TA1537, Metabolic Activation: RAT, LIVER, S-9, Method: STANDARD PLATE) is “inactive; negative”. The mutagenic call reads like this: (Test System: AMES SALMONELLA TYPHIMURIUM, Strain/Indicator: TA1538, Metabolic Activation: MOUSE, LIVER, S-9, AROCLOR 1254, Method: STANDARD PLATE) “inactive; negative”; (Test System: AMES SALMONELLA TYPHIMURIUM, Strain/Indicator: TA1538, Metabolic Activation: MOUSE, LIVER, S-9, Method: STANDARD PLATE) “inactive; negative”; under setting [8], “inactive; negative”; (Test System: AMES SALMONELLA TYPHIMURIUM, Strain/Indicator: TA1538, Metabolic Activation: RAT, LIVER, S-9, Method: STANDARD PLATE) “inactive; negative”; (Test System: E. COLI, Strain/Indicator: WP2 UVRA, Metabolic Activation: HAMSTER, LIVER, S-9, AROCLOR 1254, Method: STANDARD PLATE) “inactive; negative”; (Test System: E. COLI, Strain/Indicator: WP2 UVRA, Metabolic Activation: HAMSTER, LIVER, S-9, Method: STANDARD PLATE) “inactive; negative”. In addition, the mutagenic call (Test System: E. COLI, Strain/Indicator: WP2 UVRA, Metabolic Activation: MOUSE, LIVER, S-9, AROCLOR 1254, Method: STANDARD PLATE) is “inactive; negative”; the mutagenic call (Test System: E. COLI, Strain/Indicator: WP2 UVRA, Metabolic Activation: MOUSE, LIVER, S-9, Method: STANDARD PLATE) was “inactive; negative”; the mutagenic call (Test System: E. COLI, Strain/Indicator: WP2 UVRA, Metabolic Activation: NONE, Method: STANDARD PLATE) is “inactive; negative”; the mutagenic call (Test System: E. COLI, Strain/Indicator: WP2 UVRA, Metabolic Activation: RAT, LIVER, S-9, AROCLOR 1254, Method: STANDARD PLATE) was “inactive; negative”; the mutagenic call (Test System: E. COLI, Strain/Indicator: WP2 UVRA, Metabolic Activation: RAT, LIVER, S-9, Method: STANDARD PLATE) is “inactive; negative”.
